Data on 20 compounds can be found in PubChem BioAssay AID330 (DTP/NCI, 2004).

This assay has as its system P388 leukemia ip, CD2F1 mice, survival T/C. The experiment in a line: NCI In Vivo Anticancer Drug Screen. Data for tumor model P388 Leukemia (intraperitoneal) in CD2F1 (CDF1) mice. The conditions noted are these: endpoint: median survival time, higher = longer survival. Put shortly:
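Mice carrying the transplanted tumor received test compound or vehicle. Survival was recorded in each group, and the value is the treated-group measurement divided by that of the vehicle-treated control group.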

The mark [1] stands for this setting: dose: 6.25 mg/kg/injection, schedule: Q01DX009 (ip), vehicle: saline with Tween-80.
The mark [2] stands for this setting: dose: 25.0 mg/kg/injection, schedule: Q01DX009 (ip), vehicle: saline with Tween-80.
[3] abbreviates: dose: 60.0 mg/kg/injection, schedule: Q01DX005 (ip), vehicle: saline with Tween-80.
Where [4] appears, read: dose: 120.0 mg/kg/injection, schedule: Q01DX005 (ip), vehicle: saline with Tween-80.
[5] abbreviates: dose: 240.0 mg/kg/injection, schedule: Q01DX005 (ip), vehicle: saline with Tween-80.
Where [6] appears, read: dose: 25.0 mg/kg/injection, schedule: Q01DX009 (ip), vehicle: saline.
Setting [7] is: dose: 50.0 mg/kg/injection, schedule: Q01DX009 (ip), vehicle: saline.
[8] abbreviates: dose: 50.0 mg/kg/injection, schedule: Q01DX005 (ip), vehicle: Klucel (hydroxypropylcellulose) (HPC).
[9] abbreviates: dose: 200.0 mg/kg/injection, schedule: Q01DX005 (ip), vehicle: Klucel (hydroxypropylcellulose) (HPC).
[10] abbreviates: dose: 100.0 mg/kg/injection, schedule: Q04DX003 (ip), vehicle: saline with Tween-80.
Setting [11] is: dose: 200.0 mg/kg/injection, schedule: Q04DX003 (ip), vehicle: saline with Tween-80.
The mark [12] stands for this setting: dose: 50.0 mg/kg/injection, schedule: Q01DX005 (ip), vehicle: saline with Tween-80.
The mark [13] stands for this setting: dose: 100.0 mg/kg/injection, schedule: Q01DX005 (ip), vehicle: saline with Tween-80.
Where [14] appears, read: dose: 200.0 mg/kg/injection, schedule: Q01DX005 (ip), vehicle: saline with Tween-80.

Several values for one entry are separate records, joined by “and”; a condition that tells them apart may be missing. Equal entries are not always repeated. Toxic doses and inconclusive results are not listed.

Consider `COc1ccc(I)c(C=NC2CCCCC2)c1C`, for which the T/C reads like this: (dose: 50.0 mg/kg/injection, schedule: Q01DX005 (ip), vehicle: distilled water + Tween-80 + alcohol) 98 % of control; (dose: 100.0 mg/kg/injection, schedule: Q01DX005 (ip), vehicle: distilled water + Tween-80 + alcohol) 97 % of control; (dose: 200.0 mg/kg/injection, schedule: Q01DX005 (ip), vehicle: distilled water + Tween-80 + alcohol) 98 % of control.

Turning to `CN(C)CCCN1c2ccccc2Sc2ccc(Cl)cc21`, the T/C reads like this: (dose: 1.0 mg/kg/injection, schedule: Q01DX005 (ip), vehicle: saline) 99 % of control; (dose: 2.0 mg/kg/injection, schedule: Q01DX005 (ip), vehicle: saline) 96 % of control; (dose: 4.0 mg/kg/injection, schedule: Q01DX005 (ip), vehicle: saline) 104 % of control; under setting [1], 95 % of control; (dose: 7.5 mg/kg/injection, schedule: Q04DX003 (ip), vehicle: saline) 112 % of control; (dose: 8.0 mg/kg/injection, schedule: Q01DX005 (ip), vehicle: saline) 106 % of control. Further, the T/C (dose: 12.5 mg/kg/injection, schedule: Q04DX003 (ip), vehicle: Klucel (hydroxypropylcellulose) (HPC)) was 111 % of control; the T/C (dose: 12.5 mg/kg/injection, schedule: Q04DX003 (ip), vehicle: saline) was 108 % of control and 113 % of control and 120 % of control; the T/C (dose: 15.0 mg/kg/injection, schedule: Q04DX003 (ip), vehicle: saline) was 120 % of control; the T/C (dose: 16.0 mg/kg/injection, schedule: Q01DX005 (ip), vehicle: saline) is 106 % of control; the T/C under setting [2] was 100 % of control; the T/C (dose: 25.0 mg/kg/injection, schedule: Q04DX003 (ip), vehicle: saline) is 111 % of control and 114 % of control and 118 % of control. For the same compound, the T/C by setting is: (dose: 32.0 mg/kg/injection, schedule: Q01DX005 (ip), vehicle: saline) 116 % of control; (dose: 50.0 mg/kg/injection, schedule: Q04DX003 (ip), vehicle: Klucel (hydroxypropylcellulose) (HPC)) 108 % of control; (dose: 50.0 mg/kg/injection, schedule: Q04DX003 (ip), vehicle: saline) 105 % of control; (dose: 64.0 mg/kg/injection, schedule: Q01DX005 (ip), vehicle: saline) 105 % of control; (dose: 100.0 mg/kg/injection, schedule: Q04DX003 (ip), vehicle: saline) 99 % of control.

Consider `CCn1c(=O)c(Cl)c2n(C)c3ccccc3n2c1=O`, for which the T/C is, setting by setting: under setting [3], 97 % of control; under setting [4], 95 % of control; under setting [5], 94 % of control.

With `CC(=O)Nc1c(Cl)cc2c(c1Cl)Cc1cc(N(CCO)CCO)ccc1-2`, the T/C is, setting by setting: (dose: 6.25 mg/kg/injection, schedule: Q01DX009 (ip), vehicle: saline) 97 % of control; (dose: 12.5 mg/kg/injection, schedule: Q01DX009 (ip), vehicle: saline) 93 % of control; under setting [6], 93 % of control; under setting [7], 94 % of control.

Turning to `OC1CC2CC1C1C3C=CC(C3)C21` (stereo unspecified), the T/C runs as follows: under setting [1], 104 % of control; (dose: 12.5 mg/kg/injection, schedule: Q01DX009 (ip), vehicle: saline with Tween-80) 102 % of control; under setting [2], 102 % of control.

Consider `C[C@]12CCC(=O)C(O)=C1CC[C@H]1[C@@H]3CCC(=O)[C@@]3(C)CC[C@@]12O`, for which the T/C is 101 % of control (dose: 12.5 mg/kg/injection, schedule: Q01DX005 (ip), vehicle: Klucel (hydroxypropylcellulose) (HPC)); 109 % of control (dose: 25.0 mg/kg/injection, schedule: Q01DX005 (ip), vehicle: Klucel (hydroxypropylcellulose) (HPC)); 104 % of control under setting [8]; 104 % of control (dose: 100.0 mg/kg/injection, schedule: Q01DX005 (ip), vehicle: Klucel (hydroxypropylcellulose) (HPC)); 96 % of control under setting [9].

As for `O=c1[nH]c2cc(Cl)ccc2nc1/C=C(\O)c1ccc2ccccc2c1`, the T/C was 89 % of control under setting [3], 89 % of control under setting [4] and 110 % of control under setting [5].

Consider `COc1ccc2cc1Oc1ccc(cc1)CC1c3cc(OC)c(OC)c(c3CCN1C)Oc1c(O)c(OC)cc3c1C(C2)N(C)CC3` (stereo unspecified), for which the T/C by setting is: (dose: 20.0 mg/kg/injection, schedule: Q01DX009 (ip), vehicle: Klucel (hydroxypropylcellulose) (HPC)) 109 % of control; (dose: 40.0 mg/kg/injection, schedule: Q01DX009 (ip), vehicle: Klucel (hydroxypropylcellulose) (HPC)) 108 % of control; (dose: 80.0 mg/kg/injection, schedule: Q01DX009 (ip), vehicle: Klucel (hydroxypropylcellulose) (HPC)) 101 % of control; (dose: 160.0 mg/kg/injection, schedule: Q01DX009 (ip), vehicle: Klucel (hydroxypropylcellulose) (HPC)) 113 % of control.

In the case of `Nc1nc(SCc2ccccc2[N+](=O)[O-])c2[nH]cnc2n1`, the T/C (dose: 100.0 mg/kg/injection, schedule: Q01DX009 (ip), vehicle: saline with Tween-80) is 104 % of control; the T/C under setting [10] was 100 % of control; the T/C (dose: 200.0 mg/kg/injection, schedule: Q01DX009 (ip), vehicle: saline with Tween-80) is 95 % of control; the T/C under setting [11] is 100 % of control; the T/C (dose: 400.0 mg/kg/injection, schedule: Q01DX009 (ip), vehicle: saline with Tween-80) was 90 % of control; the T/C (dose: 400.0 mg/kg/injection, schedule: Q04DX003 (ip), vehicle: saline with Tween-80) is 91 % of control.

Take `CCCCCCSc1nc2ccc(N=Cc3ccccc3O)cc2s1`: the T/C was 94 % of control (dose: 50.0 mg/kg/injection, schedule: Q01DX009 (ip), vehicle: Klucel (hydroxypropylcellulose) (HPC)); 87 % of control (dose: 100.0 mg/kg/injection, schedule: Q01DX009 (ip), vehicle: Klucel (hydroxypropylcellulose) (HPC)); 90 % of control (dose: 200.0 mg/kg/injection, schedule: Q01DX009 (ip), vehicle: Klucel (hydroxypropylcellulose) (HPC)).

Regarding `Cn1c(=O)c2[nH]c(/N=N/N(CCCl)CCCl)nc2n(C)c1=O`, the T/C was 100 % of control under setting [6]; 100 % of control under setting [7]; 104 % of control (dose: 100.0 mg/kg/injection, schedule: Q01DX009 (ip), vehicle: saline); 107 % of control (dose: 200.0 mg/kg/injection, schedule: Q01DX009 (ip), vehicle: saline); 96 % of control (dose: 400.0 mg/kg/injection, schedule: Q01DX009 (ip), vehicle: saline).

`COc1ccc2c(=O)c(-c3ccc(OC)c(OC)c3)c(C)oc2c1`: the T/C by setting is: under setting [3], 94 % of control; under setting [4], 91 % of control; under setting [5], 86 % of control.

In the case of `O=S1(=O)NC2CCC3NS(=O)(=O)NC4CCC(N1)N4S(=O)(=O)N23` (stereo unspecified), the T/C runs as follows: (dose: 50.0 mg/kg/injection, schedule: Q01DX005 (ip), vehicle: distilled water + alcohol) 101 % of control; (dose: 100.0 mg/kg/injection, schedule: Q01DX005 (ip), vehicle: distilled water + alcohol) 109 % of control; (dose: 200.0 mg/kg/injection, schedule: Q01DX005 (ip), vehicle: distilled water + alcohol) 105 % of control.

As to `Fc1ccc(C(Nc2nncs2)Nc2nncs2)cc1`, the T/C was 111 % of control under setting [8] and 152 % of control under setting [9].

On to `Cc1nc2cc(C(F)(F)F)cc(N)c2n1-c1ccccc1`, for which the T/C reads like this: under setting [12], 113 % of control; under setting [13], 106 % of control; under setting [14], 111 % of control.

For the compound `O=C(O)C12C3C4C5C3C3(OCCO3)C1(Br)C5C42` (stereo unspecified), the T/C was 100 % of control under setting [3], 102 % of control under setting [4] and 107 % of control under setting [5].

`COc1cc([N+](=O)[O-])ccc1NC(=O)C(F)(F)F`: the T/C is, setting by setting: under setting [3], 100 % of control; under setting [4], 104 % of control; under setting [5], 101 % of control.

Consider `Cc1nc2c(N)n[nH]c(=O)n2n1`, for which the T/C was 103 % of control under setting [3], 100 % of control under setting [4] and 99 % of control under setting [5].

Turning to `O=c1cc([N+](=O)[O-])c2c([nH]1)CCC2`, the T/C under setting [12] is 97 % of control, the T/C under setting [13] is 94 % of control and the T/C under setting [14] was 90 % of control.

`CCCCCCCC(=O)Nc1cccc(C)c1C`: the T/C is, setting by setting: under setting [10], 90 % of control; under setting [11], 95 % of control.
